Results on 5 compounds are retold here after ChEMBL document CHEMBL1139774, “3-Hydroxy-4-methoxyindolomorphinans as delta opioid selective ligands” (Bioorg Med Chem Lett, 2007).

One test addresses Mu-type opioid receptor (Rattus norvegicus, UniProt P33535). Briefly: Displacement of [3H]DAMGO from rat recombinant mu opioid receptor expressed in C6 cells. In kind it is cell-based.
The target in test [1] is Delta-type opioid receptor (Rattus norvegicus, UniProt P33533). Briefly: Displacement of [3H]p-Cl-DPDPE from rat recombinant delta opioid receptor expressed in C6 cells. In kind it is cell-based.
Chain of Delta-type opioid receptor (P33533 whole entry): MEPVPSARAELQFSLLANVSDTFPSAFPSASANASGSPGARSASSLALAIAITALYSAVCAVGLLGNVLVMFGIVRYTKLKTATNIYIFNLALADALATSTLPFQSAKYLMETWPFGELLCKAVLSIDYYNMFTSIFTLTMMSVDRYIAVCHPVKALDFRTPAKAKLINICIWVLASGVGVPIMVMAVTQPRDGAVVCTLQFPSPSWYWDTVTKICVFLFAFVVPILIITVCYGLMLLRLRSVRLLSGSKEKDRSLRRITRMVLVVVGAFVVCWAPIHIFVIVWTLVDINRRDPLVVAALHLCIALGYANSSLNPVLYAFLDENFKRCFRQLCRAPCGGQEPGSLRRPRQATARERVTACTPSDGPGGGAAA
For test [2], the target named is Kappa-type opioid receptor (Homo sapiens, UniProt P41145). Briefly: Displacement of [3H]U-69593 from human recombinant kappa opioid receptor expressed in CHO cells. It is filed as cell-based.
Chain of Kappa-type opioid receptor (P41145 whole entry): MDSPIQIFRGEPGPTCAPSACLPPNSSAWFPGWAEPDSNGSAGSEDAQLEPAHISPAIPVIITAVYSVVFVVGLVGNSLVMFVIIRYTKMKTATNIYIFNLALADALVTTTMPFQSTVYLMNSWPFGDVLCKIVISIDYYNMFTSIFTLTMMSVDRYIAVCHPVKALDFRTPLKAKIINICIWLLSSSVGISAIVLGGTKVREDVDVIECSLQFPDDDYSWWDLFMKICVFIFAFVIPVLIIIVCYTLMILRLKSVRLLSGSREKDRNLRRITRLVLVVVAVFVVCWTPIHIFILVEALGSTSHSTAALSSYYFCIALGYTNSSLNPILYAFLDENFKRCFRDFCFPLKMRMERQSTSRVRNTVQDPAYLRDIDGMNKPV
The species named for a further test is Rattus norvegicus. Briefly: Selectivity for rat recombinant delta opioid receptor over rat recombinant mu opioid receptor.

Chain of Mu-type opioid receptor (P33535 whole entry): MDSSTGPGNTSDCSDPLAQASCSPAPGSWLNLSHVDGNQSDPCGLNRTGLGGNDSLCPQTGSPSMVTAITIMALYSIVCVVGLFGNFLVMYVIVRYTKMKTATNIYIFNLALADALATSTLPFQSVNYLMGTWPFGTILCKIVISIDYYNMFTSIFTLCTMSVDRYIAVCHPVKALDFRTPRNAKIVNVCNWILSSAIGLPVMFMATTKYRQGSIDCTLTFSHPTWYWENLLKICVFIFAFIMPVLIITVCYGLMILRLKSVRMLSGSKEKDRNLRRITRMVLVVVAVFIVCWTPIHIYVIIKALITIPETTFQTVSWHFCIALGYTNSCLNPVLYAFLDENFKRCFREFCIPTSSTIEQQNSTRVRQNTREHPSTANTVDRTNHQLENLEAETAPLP

Regarding `COc1c(O)ccc2c1[C@]13CCN(CC4CC4)[C@H](C2)[C@]1(O)Cc1c([nH]c2ccccc12)C3`, the Ki was 58 nM on Mu-type opioid receptor, 0.4 nM in test [1] and 79 nM in test [2]. In addition, in the test filed under Rattus norvegicus, the Ratio Ki was 145.

As to `CN1CC[C@]23c4c5ccc(O)c4O[C@H]2c2[nH]c4ccccc4c2C[C@@]3(O)[C@H]1C5` [OXYMORPHINDOLE CHLORIDE], the Ki on Mu-type opioid receptor came to 105 nM; in test [1] it was 0.9 nM; in test [2], 515 nM. The Ratio Ki in the test filed under Rattus norvegicus worked out at 115.

Consider `COc1ccc2c(c1OC)[C@]13CCN(C)[C@H](C2)[C@]1(O)Cc1c([nH]c2ccccc12)C3`, for which the Ki is 7590 nM at Mu-type opioid receptor, 41 nM in test [1] and greater than 7000 nM in test [2]. Besides, in the test filed under Rattus norvegicus, the Ratio Ki was 185.

`COc1c(O)ccc2c1[C@]13CCN(C)[C@H](C2)[C@]1(O)Cc1c([nH]c2ccccc12)C3`: the Ki at Mu-type opioid receptor is 474 nM; in test [1] it was 4.5 nM; in test [2] it was 582 nM. Moreover, in the test listed under Rattus norvegicus, the Ratio Ki is 105.

For `COc1ccc2c(c1OC)[C@]13CCN(CC4CC4)[C@H](C2)[C@]1(O)Cc1c([nH]c2ccccc12)C3`, the Ki is 1720 nM at Mu-type opioid receptor, 19 nM in test [1] and 1440 nM in test [2]. Besides, in the test listed under Rattus norvegicus, the Ratio Ki was found to be 90.
